12 compounds from ChEMBL document CHEMBL1201862, “PubChem BioAssay data set” (2004) can be followed below.

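Values below derive from 48-hour exposures of cells grown in 96-well plates, with endpoints linearly interpolated between the two concentrations bracketing the appropriate inhibition level. GI50 = concentration required for 50% inhibition of growth.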 Activity calls are given as the source filed them. No stated cut-off is given here; in the data, active = GI50 up to about 1.1 µM and inactive = higher.

Some test systems named below: A549; CAKI-1; DU-145; EKVX; HCC 2998; HOP-62; HT-29; Hs-578T; K562; NCI-H522; OVCAR-3; OVCAR-4; PC-3; RPMI-8226; RXF 393; SR; MDA-MB-231; SF-539; SK-MEL-2; OVCAR-8.
What all share (experiment): NCI anticancer screen, dose series, 48 h

`O=c1c(Nc2ccccc2)cn(CCOc2ccccc2)c(=O)n1CCOc1ccccc1`: the GI50 is 91.8 µM (inactive) in the experiment with A549; 81.7 µM (inactive) in the experiment on CAKI-1; 53 µM (inactive) in the experiment on DU-145; 33.1 µM (inactive) in the experiment with EKVX; 63.1 µM (inactive) in the experiment with HCC 2998; 17.2 µM (inactive) in the experiment with HOP-62. The GI50 is > 100 µM (inactive) in the experiment with HT-29; 17.6 µM (inactive) in the experiment on Hs-578T; > 100 µM (inactive) with K562; 29.1 µM (inactive) in the experiment with NCI-H522; 35.9 µM (inactive) with OVCAR-3; 19.8 µM (inactive) in the experiment with OVCAR-4. For the same compound, the GI50 with PC-3 was 34.8 µM (inactive); in the experiment with RPMI-8226 it was > 100 µM (inactive); in the experiment on RXF 393, 48.4 µM (inactive); in the experiment on SR, > 100 µM (inactive).
`CC(=O)Nc1ccc(S(=O)(=O)Nc2nnc(S(N)(=O)=O)s2)cc1`: the GI50 in the experiment with A549, in the experiment with CAKI-1, in the experiment with DU-145, with EKVX, in the experiment with HCC 2998 and with HT-29 was > 100 µM (inactive) throughout. Further, the GI50 with MDA-MB-231, in the experiment with NCI-H522, in the experiment on OVCAR-4, in the experiment on RPMI-8226, in the experiment with RXF 393 and with SF-539 was > 100 µM (inactive) throughout. Besides, the GI50 with SR was > 100 µM (inactive).
Consider `C=C[C@@]1(C)CC2CC[C@]3(C)C(C)=CC(=O)CC3[C@]2(C)CC1O` (stereo partly specified), for which the GI50 in the experiment with A549, in the experiment with CAKI-1, in the experiment with DU-145, in the experiment on EKVX, in the experiment on HCC 2998 and with HOP-62 was > 100 µM (inactive) throughout. For the same compound, the GI50 is > 100 µM (inactive) with HT-29; > 100 µM (inactive) with Hs-578T; 38 µM (inactive) in the experiment with K562; 32.7 µM (inactive) in the experiment on NCI-H522; 67.3 µM (inactive) in the experiment with OVCAR-3; > 100 µM (inactive) with OVCAR-4. In addition, the GI50 with PC-3, in the experiment with RPMI-8226, in the experiment on RXF 393, in the experiment with SF-539, in the experiment with SK-MEL-2 and in the experiment with SR was > 100 µM (inactive) in each case.
For `CSC1=C(C(=O)Nc2ccc(C)cc2)C(N)=NC1=O`, the GI50 in the experiment on CAKI-1, in the experiment on DU-145, in the experiment with EKVX, in the experiment with HCC 2998, with HT-29 and with Hs-578T was > 100 µM (inactive) each time. Further, the GI50 in the experiment with K562, with MDA-MB-231, in the experiment on OVCAR-4, in the experiment with OVCAR-8, in the experiment with RPMI-8226 and in the experiment on RXF 393 was > 100 µM (inactive) each time. The GI50 in the experiment with SF-539 is > 100 µM (inactive); with SR it was 81.5 µM (inactive).
With `O=S(=O)(O)c1ccc(/N=N/c2ccc(/N=N/c3c(O)ccc4cc(S(=O)(=O)O)ccc34)cc2)cc1`, the GI50 in the experiment with A549, in the experiment on CAKI-1, with EKVX, in the experiment on HCC 2998, in the experiment on HOP-62 and with HT-29 was > 100 µM (inactive) each time. For the same compound, the GI50 in the experiment with Hs-578T, in the experiment with K562, with MDA-MB-231, in the experiment on NCI-H522, in the experiment on OVCAR-3 and in the experiment with OVCAR-8 was > 100 µM (inactive) in each case. For the same compound, the GI50 in the experiment on PC-3, with RPMI-8226, in the experiment with RXF 393, in the experiment on SF-539, in the experiment with SK-MEL-2 and in the experiment with SR was > 100 µM (inactive) throughout.
Consider `CC(=O)NC1C(OCc2ccccc2)OC(COC(=O)CCCCCNc2ccc([N+](=O)[O-])c3[nH]c4ccc(O)cc4c(=O)c23)C(O)C1OC(C)C(=O)N[C@@H](C)C(=O)N[C@H](CCC(=O)OCc1ccccc1)C(N)=O` (stereo partly specified), for which the GI50 in the experiment with A549 was 1.26 µM (inactive); in the experiment with CAKI-1 it was 1.56 µM (inactive); in the experiment with EKVX it was 3.94 µM (inactive); with HCC 2998, 3.25 µM (inactive); in the experiment on HOP-62, 5.9 µM (inactive); with HT-29, 0.401 µM (active). Moreover, the GI50 in the experiment on K562 was 1.49 µM (inactive); in the experiment with NCI-H522, 1.6 µM (inactive); with OVCAR-3, 2.15 µM (inactive); in the experiment on OVCAR-4, 3.34 µM (inactive); in the experiment on OVCAR-8 it was 1.64 µM (inactive); with RPMI-8226, 0.506 µM (active). The GI50 with RXF 393 is 1.6 µM (inactive); in the experiment on SF-539 it was 3.4 µM (inactive); with SK-MEL-2, 1.95 µM (inactive); with SR, 0.522 µM (active).
As to `O=[N+]([O-])c1ccc(-n2nnc(C3=NCCN3)c2-c2ccc(Cl)cc2)cc1`, the GI50 was > 100 µM (inactive) in the experiment on A549; > 100 µM (inactive) in the experiment with CAKI-1; > 100 µM (inactive) with EKVX; > 100 µM (inactive) with HCC 2998; > 100 µM (inactive) in the experiment on HOP-62; 66.8 µM (inactive) in the experiment on HT-29. The GI50 in the experiment on K562 was 83.8 µM (inactive); with NCI-H522, > 100 µM (inactive); in the experiment on OVCAR-3 it was > 100 µM (inactive); with OVCAR-4, > 100 µM (inactive); with OVCAR-8, > 100 µM (inactive); in the experiment with RPMI-8226 it was > 100 µM (inactive). Moreover, the GI50 is 93.3 µM (inactive) in the experiment with RXF 393, > 100 µM (inactive) in the experiment with SF-539, > 100 µM (inactive) in the experiment with SK-MEL-2 and 27.2 µM (inactive) in the experiment on SR.
For `CN(C)c1nc2oc(-c3ccccc3)c(-c3ccccc3)c2c2nncn12`, the GI50 with A549, in the experiment with CAKI-1, in the experiment with DU-145, in the experiment on EKVX, with HCC 2998 and with HT-29 was > 100 µM (inactive) in each case. Besides, the GI50 in the experiment with Hs-578T, in the experiment with K562, in the experiment on MDA-MB-231, in the experiment with NCI-H522, with OVCAR-4 and in the experiment with OVCAR-8 was > 100 µM (inactive) each time. Also, the GI50 with RPMI-8226, in the experiment on RXF 393, in the experiment on SF-539 and in the experiment on SR was > 100 µM (inactive) in each case.
`COc1ccc(-c2c(C3=NCCCN3)nnn2-c2ccc([N+](=O)[O-])cc2)cc1`: the GI50 with A549, in the experiment with CAKI-1, in the experiment on EKVX, in the experiment on HCC 2998, in the experiment with HOP-62 and with HT-29 was > 100 µM (inactive) each time. The GI50 with K562, in the experiment on NCI-H522, with OVCAR-3, in the experiment on OVCAR-4, with OVCAR-8 and with RPMI-8226 was > 100 µM (inactive) each time. The GI50 with RXF 393, in the experiment on SF-539, with SK-MEL-2 and with SR was > 100 µM (inactive) in each case.
Regarding `CCOc1ccccc1/N=N/c1c(-c2ccccc2)nn(C(=O)CC(=O)Nc2cccc(C)c2)c1-c1ccccc1`, the GI50 with A549 was > 100 µM (inactive); in the experiment with CAKI-1, > 100 µM (inactive); with EKVX, 56.6 µM (inactive); in the experiment with HCC 2998, 22.7 µM (inactive); in the experiment on HOP-62, > 100 µM (inactive); in the experiment on HT-29 it was 39.6 µM (inactive). Moreover, the GI50 is 62.7 µM (inactive) in the experiment on K562; > 100 µM (inactive) in the experiment with NCI-H522; > 100 µM (inactive) in the experiment with OVCAR-3; > 100 µM (inactive) in the experiment with OVCAR-4; > 100 µM (inactive) in the experiment on OVCAR-8; > 100 µM (inactive) in the experiment with RPMI-8226. The GI50 in the experiment with RXF 393, in the experiment with SF-539, in the experiment on SK-MEL-2 and in the experiment with SR was > 100 µM (inactive) each time.
Turning to `COC1/C=C/C(C)C(C(C)C(OC)C(C)CCC(=O)C(C)C(CC(=O)O)OC)OC(=O)/C=C/C=C(\C)CC(OC)C(OC)C2=CC(=O)O[C@@H](C(C)C(OC)CC(OC)/C=C/C(C)C(O)C1)[C@H]2O` (stereo partly specified), the GI50 in the experiment with A549 is 0.0419 µM (active); with CAKI-1 it was 0.033 µM (active); in the experiment on DU-145 it was 0.053 µM (active); in the experiment with EKVX, 0.0474 µM (active); in the experiment on HCC 2998 it was 0.0631 µM (active); in the experiment on HOP-62, 0.121 µM (active). Moreover, the GI50 in the experiment on HT-29 is 0.026 µM (active); in the experiment with K562, 0.0564 µM (active); in the experiment on MDA-MB-231 it was 0.083 µM (active); in the experiment on OVCAR-3 it was 0.188 µM (active); in the experiment on OVCAR-4 it was 0.153 µM (active); with OVCAR-8, 0.0337 µM (active). For the same compound, the GI50 in the experiment with PC-3 was 0.0382 µM (active); in the experiment on RPMI-8226, 0.0959 µM (active); in the experiment on SK-MEL-2 it was 0.198 µM (active); in the experiment with SR, 0.0622 µM (active).
With `CCCCCCC(=O)CC(=O)C(=O)Nc1ccccc1C`, the GI50 in the experiment with A549, with CAKI-1, in the experiment on EKVX, with HCC 2998, with HOP-62 and in the experiment on HT-29 was > 100 µM (inactive) each time. In addition, the GI50 with K562 is > 100 µM (inactive); in the experiment with NCI-H522 it was > 68.5 µM (inactive); with OVCAR-3, > 100 µM (inactive); with OVCAR-4, > 100 µM (inactive); in the experiment on OVCAR-8, > 100 µM (inactive); in the experiment with RPMI-8226, > 100 µM (inactive). Besides, the GI50 in the experiment with RXF 393, in the experiment with SF-539, in the experiment on SK-MEL-2 and in the experiment with SR was > 100 µM (inactive) in each case.
